Results taken from patent publication US12048737B2, “Use of a vaccine targeting a cryptic tert epitope, for treating cancer in a HLA-A*0201-positive patient having a non-immunogenic tumor expressing tert” (KRIPTIC PHARMACEUTICALS LIMITED, priority 2017, dated 2024).
“And” between values parts separate entries of the source, which are not always exact repeats. Identical values can stand only once.

How the values were obtained:
TERT572 peptide = assay: IFNg ELISpot immunomonitoring of vaccine induced TERT572 specific immune response in PBMC; assay type: cell-based, human
[1] = test system: NSCLC tumors expressing TElomerase Reverse Transcriptase (TERT); assay: Vx-001-201 randomized double blind phase IIb study: clinical outcome (OS, TTF, 12 months survival); assay type: in vivo, human
Description: The Vx-001-201 study is a randomized, double blind multicenter study done in 70 centers in France, Germany, Spain, Italy, Greece, Poland, Romania and Czech Republic. Key eligibility criteria were a) non small cell lung cancer (NSCLC), b) stage IV or recurrent stage I-III, c) disease control after platinum based first line chemotherapy according to RECIST 1.1 criteria, d) HLA-A*0201 positivity, e) tumors expressing TElomerase Reverse Transcriptase (TERT), f) ECOG 0 or 1 g) absence of brain metastasis.
• a) Principal endpoint: overall survival (OS) measured from randomization • b) Secondary endpoints: • Time to Treatment Failure (TTF) measured from randomization • OS at 12 months • c) Main exploratory objectives • Evaluation of vaccine induced specific immune response • Correlation between vaccine specific immune response and clinical response Procedures and Vaccination Protocol
Patients who fulfilled all inclusion criteria were randomized within 4 weeks after the end of first line chemotherapy.
The vaccination protocol consisted in six vaccinations at three week interval. The optimized Vx-001/TERT572Y was used in the first two vaccinations and the native Vx-001/TERT572 in the following four vaccinations. Patients who continued controlling their disease after the sixth vaccination received boost vaccination with the Vx-001/TERT572 every three months. Vaccination was stopped at disease progression (FIG. 1).
The primary and secondary endpoints were analysed in the Full Analysis Set (FAS) composed of all patients who fulfilled the five main criteria a) NSCLC, b) stage IV or recurrent stage I-III, c) disease control after first line chemotherapy, d) HLA-A*0201 positivity and e) TERT expressing tumors.
We used the Kaplan-Meier method to estimate OS and TTF in each arm and a Cox proportional hazards regression model to estimate Hazard Ratio (HR) relating OS and TTF to the treatment effect.

[2] = patients with natural immunity against TERT572
[3] = FAS, all patients, Vx-001 vs placebo
[4] = FAS, OR to chemotherapy (n = 87)
[5] = FAS, SD to chemotherapy (n = 103)
[6] = Vx-001 responders vs non-responders
[7] = patients with no natural immunity
[8] = patients without natural immunity, Vx-001 vs placebo
[9] = vaccinated patients, Vx-001 immune non-responders
[10] = vaccinated patients, Vx-001 immune responders
[11] = with natural immunity, assessed before 26 days after end of chemotherapy
[12] = with natural immunity, assessed before 26 days after end of chemotherapy, Vx-001 vs placebo
[13] = within Vx-001 treated (n = 80): natural immunity vs no natural immunity
[14] = without natural immunity, assessed less than 26 days after end of chemotherapy
[15] = without natural immunity, assessed less than 26 days after end of chemotherapy, Vx-001 vs placebo
[16] = without natural immunity, 1st line CARBO (n = 74)
[17] = without natural immunity, 1st line CARBO (n = 74), Vx-001 vs placebo
[18] = without natural immunity, 1st line CDDP (n = 46)
[19] = without natural immunity, 1st line CDDP (n = 46), Vx-001 vs placebo
[20] = without natural immunity, <65 years (n = 59)
[21] = without natural immunity, <65 years (n = 59), Vx-001 vs placebo
[22] = without natural immunity, >65 years (n = 63)
[23] = without natural immunity, >65 years (n = 63), Vx-001 vs placebo
[24] = without natural immunity, Current smoker
[25] = without natural immunity, Current smoker, Vx-001 vs placebo
[26] = without natural immunity, Female (n = 33)
[27] = without natural immunity, Female (n = 33), Vx-001 vs placebo
[28] = without natural immunity, Heavy smoker (>25 years, former or current smoker)
[29] = without natural immunity, Male (n = 89)
[30] = without natural immunity, Male (n = 89), Vx-001 vs placebo
[31] = without natural immunity, NS + Former smoker (<30 years)
[32] = without natural immunity, NS + Former smoker (≤20 years)
[33] = without natural immunity, NS + Former smoker (≤25 years)
[34] = without natural immunity, NS or light smoker (≤25 years, former or current smoker)
[35] = without natural immunity, NSQ (n = 76)
[36] = without natural immunity, Never smoker (NS)
[37] = without natural immunity, OR to chemotherapy (n = 55)
[38] = without natural immunity, OR to chemotherapy (n = 55), Vx-001 vs placebo
[39] = without natural immunity, SD to chemotherapy (n = 67)
[40] = without natural immunity, SD to chemotherapy (n = 67), Vx-001 vs placebo
[41] = without natural immunity, SQ (n = 46)
[42] = without natural immunity, SQ (n = 46), Vx-001 vs placebo

## Vx-001: vaccine composed of two nine amino acid peptides, TERT572 and TERT572Y, administered separately with the adjuvant Montanide ISA51 VG (chain 1 RLFFYRKSV; chain 2 YLFFYRKSV; Montanide ISA51 VG adjuvant; peptide from a human protein; optimized peptide)
TERT572 peptide; 75 Vx-001 treated patients measured at least at W6, W18 or thereafter
  Patients who mounted a TERT572 specific immune response: 29.3%
TERT572 peptide; non-squamous (NSQ) NSCLC
  Patients with TERT572 specific immune response: 36%
TERT572 peptide; [2]
  Frequency of patients with vaccine-induced immune response: 15%
TERT572 peptide; patients without natural immunity against TERT572
  Frequency of patients with vaccine-induced immune response: 36.2%
TERT572 peptide; squamous (SQ) NSCLC
  Patients with TERT572 specific immune response: 13.3%
[1]; FAS, all patients
  12 months survival: 58%
  Median OS: 14.3 months
  Median TTF: 3.6 months
[1]; [3]
  HR (OS): 0.97
  HR (TTF): 0.88
[1]; FAS, 1st line CARBO (n = 119)
  12 months OS: 58.2%
  Median survival (OS): 14.3 months
[1]; FAS, 1st line CARBO (n = 119), Vx-001 vs placebo
  HR (OS): 1.06
[1]; FAS, 1st line CDDP (n = 69)
  12 months OS: 59%
  Median survival (OS): 15 months
[1]; FAS, 1st line CDDP (n = 69), Vx-001 vs placebo
  HR (OS): 0.81
[1]; FAS, <65 years (n = 92)
  12 months OS: 57.7%
  Median survival (OS): 13.4 months
[1]; FAS, <65 years (n = 92), Vx-001 vs placebo
  HR (OS): 1.2
[1]; FAS, >65 years (n = 98)
  12 months OS: 59%
  Median survival (OS): 15 months
[1]; FAS, >65 years (n = 98), Vx-001 vs placebo
  HR (OS): 0.78
[1]; FAS, Female (n = 59)
  12 months OS: 53.3%
  Median survival (OS): 13.2 months
[1]; FAS, Female (n = 59), Vx-001 vs placebo
  HR (OS): 1.52
[1]; FAS, Male (n = 131)
  12 months OS: 61%
  Median survival (OS): 15 months
[1]; FAS, Male (n = 131), Vx-001 vs placebo
  HR (OS): 0.81
[1]; FAS, NSQ (n = 118)
  12 months OS: 55%
  Median survival (OS): 13.4 months
[1]; FAS, NSQ (n = 118), Vx-001 vs placebo
  HR (OS): 0.88
[1]; [4]
  12 months OS: 69%
  Median survival (OS): 15.3 months
[1]; FAS, OR to chemotherapy (n = 87), Vx-001 vs placebo
  HR (OS): 0.89
[1]; [5]
  12 months OS: 52%
  Median survival (OS): 14.3 months
[1]; FAS, SD to chemotherapy (n = 103), Vx-001 vs placebo
  HR (OS): 0.99
[1]; FAS, SQ (n = 72)
  12 months OS: 64%
  Median survival (OS): 14.3 months
[1]; FAS, SQ (n = 72), Vx-001 vs placebo
  HR (OS): 1.13
[1]; [6]
  HR (OS): 0.39
  HR (TTF): 0.41
[1]; patients with natural immunity
  12 months OS: 65%
  Median TTF: 2.9 months
[1]; patients with natural immunity (FIG. 6)
  OS and 12 months survival, placebo vs Vx-001: no difference
[1]; [2]
  Median survival (OS): 15.5 months
[1]; [7]
  12 months OS: 55%
  Median TTF: 4.1 months
[1]; patients with no natural immunity against TERT572 (non-immunogenic tumors)
  Median survival (OS): 13.2 months
[1]; [8]
  HR (OS): 0.80
  HR (TTF): 0.75
[1]; [9]
  Median OS: 13.4 months
  Median TTF: 3.6 months
[1]; [10]
  Median OS: 21.3 months
  Median TTF: 9.1 months
[1]; [11]
  Median OS: 15.3 months
  Median TTF: 2.2 months
[1]; [12]
  HR (OS): 1.54
  HR (TTF): 1.98
[1]; [13]
  HR (OS): 0.91
  HR (TTF): 0.83
[1]; without natural immunity, assessed later than 26 days after chemotherapy
  Median OS: 13.2 months
[1]; without natural immunity, assessed later than 26 days after chemotherapy, Vx-001 vs placebo
  HR (OS): 0.96
[1]; [14]
  Median OS: 11.7 months
  Median TTF: 4.1 months
[1]; [15]
  HR (OS): 0.58
  HR (TTF): 0.62
[1]; [16]
  12 months OS: 53%
  Median TTF: 3.7 months
  Median survival (OS): 13.1 months
[1]; [17]
  HR (OS): 1.03
  HR (TTF): 0.80
[1]; [18]
  12 months OS: 59%
  Median TTF: 4.1 months
  Median survival (OS): 13.4 months
[1]; [19]
  HR (OS): 0.51
  HR (TTF): 0.67
[1]; [20]
  12 months OS: 53.6%
  Median TTF: 3.5 months
  Median survival (OS): 12.7 months
[1]; [21]
  HR (OS): 1.00
  HR (TTF): 0.84
[1]; [22]
  12 months OS: 57.1%
  Median TTF: 4.4 months
  Median survival (OS): 14.1 months
[1]; [23]
  HR (OS): 0.63
  HR (TTF): 0.65
[1]; [24]
  12 months OS: 20%
  Median TTF: 4.4 months
  Median survival (OS): 6.4 months
[1]; [25]
  HR (OS): 1.3
  HR (TTF): 0.70
[1]; [26]
  12 months OS: 52.9%
  Median TTF: 4.6 months
  Median survival (OS): 12.7 months
[1]; [27]
  HR (OS): 1.24
  HR (TTF): 0.91
[1]; without natural immunity, Former smoker (<30 years)
  Median TTF: 4.2 months
[1]; without natural immunity, Former smoker (<30 years), Vx-001 vs placebo
  HR (TTF): 0.55
[1]; without natural immunity, Former smoker (≤20 years) (never smoked or smokers less than 20 years)
  Median TTF: 5.6 months
[1]; without natural immunity, Former smoker (≤20 years) (never smoked or smokers less than 20 years), Vx-001 vs placebo
  HR (TTF): 0.39
[1]; without natural immunity, Former smoker (≤25 years) (never smoked or smokers less than 25 years)
  Median TTF: 5.6 months
[1]; without natural immunity, Former smoker (≤25 years) (never smoked or smokers less than 25 years), Vx-001 vs placebo
  HR (TTF): 0.43
[1]; [28]
  12 months OS: 42.1%
  Median survival (OS): 9.9 months
[1]; without natural immunity, Heavy smoker (>25 years, former or current smoker), Vx-001 vs placebo
  HR (OS): 1.15
[1]; [29]
  12 months OS: 56.4%
  Median TTF: 3.7 months
  Median survival (OS): 14.1 months
[1]; [30]
  HR (OS): 0.70
  HR (TTF): 0.7
[1]; [31]
  12 months OS: 78%
  Median survival (OS): 20.2 months
[1]; without natural immunity, NS + Former smoker (<30 years), Vx-001 vs placebo
  HR (OS): 0.37
[1]; [32]
  12 months OS: 80%
  Median survival (OS): 20.2 months
[1]; without natural immunity, NS + Former smoker (≤20 years), Vx-001 vs placebo
  HR (OS): 0.23
[1]; [33]
  12 months OS: 82.3%
  Median survival (OS): 20.7 months
[1]; without natural immunity, NS + Former smoker (≤25 years), Vx-001 vs placebo
  HR (OS): 0.29
[1]; [34]
  12 months OS: 83.0%
  Median survival (OS): 20.7 months
[1]; without natural immunity, NS or light smoker (≤25 years, former or current smoker), Vx-001 vs placebo
  HR (OS): 0.27
[1]; [35]
  12 months OS: 56.7%
  Median survival (OS): 13.4 months
[1]; without natural immunity, NSQ (n = 76), Vx-001 vs placebo
  HR (OS): 0.58
[1]; without natural immunity, NSQ (n = 78)
  Median TTF: 4.6 months
[1]; without natural immunity, NSQ (n = 78), Vx-001 vs placebo
  HR (TTF): 0.61
[1]; without natural immunity, Never smoker
  Median TTF: 5.6 months
[1]; [36]
  12 months OS: 85.7%
  Median survival (OS): 16.2 months
[1]; without natural immunity, Never smoker (NS), Vx-001 vs placebo
  HR (OS): 0.2
[1]; without natural immunity, Never smoker, Vx-001 vs placebo
  HR (TTF): 0.51
[1]; [37]
  12 months OS: 59% and 57.9%
  Median TTF: 5.3 months
  Median survival (OS): 13.2 months
[1]; [38]
  HR (OS): 0.72
  HR (TTF): 0.56
[1]; [39]
  12 months OS: 54%
  Median TTF: 3.6 months
  Median survival (OS): 13.6 months
[1]; [40]
  HR (OS): 0.82
  HR (TTF): 0.95
[1]; [41]
  12 months OS: 52.6%
  Median TTF: 3 months
  Median survival (OS): 13.2 months
[1]; [42]
  HR (OS): 1.41
  HR (TTF): 1.18
